From patent US20060025419A1, “Imidazoquinoxaline compound for the treatment of melanoma” (priority 2004, published 2006)

Tests used:
SK-Mel-5 cells [1] = test: Growth of cultured melanoma cells, hemocytometer counting; type: cell-based, human
Method: (§1) FIGS. 1A-1E. […] After 72 h treatment, cells were photographed. […] 2×10^6 SK-Mel-5 melanoma cells were subcutaneously inoculated into nude mice (n=5 mice per group). […] Tumor size was measured using an electronic digital caliper at intervals of 4 days. Tumor volume was calculated and statistically analyzed. Data shown are representative of two independent experiments. […] BMS-345541 levels in serum (μM, left axis) and tumor tissues (nmoles per gram tumor protein, right axes) were determined at the indicated time points.
A super-repressor form of human IκBα (S32, 36A) resistant to degradation and mutant IKKβ (K44M) was kindly provided by Javier Piedrafita (Sidney Kimmel Cancer Center, University of California-San Diego School of Medicine). Antibodies to IKKα (H-744), IKKβ (H-470), Bcl-2, Bax and AIF were purchased from Santa Cruz Biotechnology, Inc. (Santa Cruz, Calif.). Dihydroethidine, 3,3′dihexyloxacarbocyanine iodide and pan-caspase inhibitor (Z-VAD-FMK) were purchased from Molecular Probes (Eugene, Oreg.). N-acetyl-L-cysteine (NAC) and Tiron were from Sigma-Aldrich (St. Louis, Mo.). Normal human epidermal melanocytes (NHEM) were provided by the Skin Disease Research Center in Vanderbilt University School of Medicine. NHEM were cultured in 154 medium with 1× human melanocyte growth supplement (Cascade Biologicals, Inc.). The melanoma cell lines, Sk Mel5, A375 and Hs294T, originally established from human metastatic melanoma, were purchased from American Type Culture Collection and cultured in DMEM: Ham's F-12 medium containing 10% FBS, 2 mM of L-glutamine, 100 μM of MEM Non-Essential Amino Acids (Life Technologies, Inc.), and 1 mM of sodium pyruvate (Sigma Chemical Co.).
Aberrant activation of NF-κB has been associated with carcinogenesis, and constitutively high IKK activity has been detected in many tumor types, including human melanoma (Yang & Richmond, 2001; Liptay et al., 2003; Mathas et al., 2003). IKK is a major regulator of the NF-κB pathway and therefore represents an attractive therapeutic target in advanced cancers. […] After three days of culture, the cell numbers were determined by hemocytometer counting (Table 1).

IKK = molecular target: T1, IKK (Homo sapiens, UniProt O14920+O15111); test: IKK immunoprecipitation and in vitro kinase assay from treated SK-Mel-5 cells; type: cell-based; conditions: overnight (14 h) treatment, autoradiography (FIG. 2B)
T1 construct: Equal aliquots of cytoplasmic IKK proteins were immunoprecipitated with anti-IKKα/β antibodies; endogenous in cells; host or cells: SK-Mel-5 human melanoma cells, cytoplasmic extract, immunoprecipitated on Protein A/G agarose beads
T1 sequence (O14920 whole entry): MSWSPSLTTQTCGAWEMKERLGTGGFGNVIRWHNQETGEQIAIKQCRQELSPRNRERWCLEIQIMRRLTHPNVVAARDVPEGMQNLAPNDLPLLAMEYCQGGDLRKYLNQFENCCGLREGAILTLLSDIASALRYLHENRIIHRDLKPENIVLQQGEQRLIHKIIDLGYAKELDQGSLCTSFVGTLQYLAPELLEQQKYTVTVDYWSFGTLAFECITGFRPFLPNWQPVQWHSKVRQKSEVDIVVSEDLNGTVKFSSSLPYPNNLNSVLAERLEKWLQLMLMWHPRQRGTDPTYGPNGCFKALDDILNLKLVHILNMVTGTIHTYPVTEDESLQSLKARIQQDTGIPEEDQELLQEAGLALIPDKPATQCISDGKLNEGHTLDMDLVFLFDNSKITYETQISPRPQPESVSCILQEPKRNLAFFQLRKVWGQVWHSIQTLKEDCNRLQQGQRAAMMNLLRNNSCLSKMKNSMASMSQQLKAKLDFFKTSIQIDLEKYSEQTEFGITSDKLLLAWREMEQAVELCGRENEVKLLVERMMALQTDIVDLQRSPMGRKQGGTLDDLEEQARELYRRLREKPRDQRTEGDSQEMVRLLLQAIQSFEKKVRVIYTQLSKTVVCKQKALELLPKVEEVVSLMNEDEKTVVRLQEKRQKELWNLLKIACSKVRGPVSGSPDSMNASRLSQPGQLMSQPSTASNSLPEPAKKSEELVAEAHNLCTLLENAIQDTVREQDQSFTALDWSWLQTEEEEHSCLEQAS
T1 sequence (O15111 whole entry): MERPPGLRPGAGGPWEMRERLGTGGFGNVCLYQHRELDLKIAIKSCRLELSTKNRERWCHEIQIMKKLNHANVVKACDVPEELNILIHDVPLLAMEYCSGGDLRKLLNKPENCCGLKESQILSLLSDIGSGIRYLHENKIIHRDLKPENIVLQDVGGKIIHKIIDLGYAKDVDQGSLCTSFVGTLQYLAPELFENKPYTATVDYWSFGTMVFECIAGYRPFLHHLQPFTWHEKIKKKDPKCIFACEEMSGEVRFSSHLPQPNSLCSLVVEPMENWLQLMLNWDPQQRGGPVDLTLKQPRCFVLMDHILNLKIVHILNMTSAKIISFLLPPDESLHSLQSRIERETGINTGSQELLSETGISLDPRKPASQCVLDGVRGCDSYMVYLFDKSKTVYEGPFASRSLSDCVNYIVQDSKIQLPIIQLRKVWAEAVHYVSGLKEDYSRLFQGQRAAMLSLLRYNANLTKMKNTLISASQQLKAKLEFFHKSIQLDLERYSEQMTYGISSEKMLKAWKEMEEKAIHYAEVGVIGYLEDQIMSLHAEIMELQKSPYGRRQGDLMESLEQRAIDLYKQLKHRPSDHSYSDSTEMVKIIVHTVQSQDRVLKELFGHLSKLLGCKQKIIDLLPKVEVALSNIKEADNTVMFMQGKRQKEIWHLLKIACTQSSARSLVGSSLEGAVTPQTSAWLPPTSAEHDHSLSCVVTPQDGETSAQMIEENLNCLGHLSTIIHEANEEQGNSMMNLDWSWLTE
T1 sequence (Q9Y6K9 whole entry partner): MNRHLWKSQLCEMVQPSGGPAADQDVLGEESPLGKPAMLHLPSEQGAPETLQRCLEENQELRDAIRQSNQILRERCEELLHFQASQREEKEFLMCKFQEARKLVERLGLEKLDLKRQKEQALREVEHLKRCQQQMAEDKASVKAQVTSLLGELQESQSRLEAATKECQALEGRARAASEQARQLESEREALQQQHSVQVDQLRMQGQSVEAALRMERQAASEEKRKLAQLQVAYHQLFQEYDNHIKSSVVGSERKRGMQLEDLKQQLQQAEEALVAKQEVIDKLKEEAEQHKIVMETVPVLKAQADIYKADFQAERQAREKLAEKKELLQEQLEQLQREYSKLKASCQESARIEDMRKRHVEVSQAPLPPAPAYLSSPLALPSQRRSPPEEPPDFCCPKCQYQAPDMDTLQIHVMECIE
Method: FIGS. 2A-2D. […] SK-Mel-5 cells were plated in 6-well plates (1.5×10^5 cells per well) and then cotransfected with 1 μg of HIV long terminal repeat NF-κB-luciferase vector and β-galactosidase vector DNA using Lipofectamine Plus reagent. Twenty-four hours after transfection, cells in duplicate plates were treated with 0, 0.1, 1 and 10 μM of BMS-345541in DMSO and incubated for an additional 36 h. Cell extract was prepared and luciferase activity was detected. Luciferase activity was normalized to β-galactosidase activity. […] ATP. The [γ-^32P]-labeled IκBα protein was visualized by autoradiography. […] The supernatants from B were cleared by centrifugation, or (FIG. 2D) sera were collected from mice, and subjected to ELISA assay for CXCL1 according to the manufacture's protocol. Data shown are from a representative data set from two experiments performed in duplicate (total n=4 for each point). For ELISA; the mean value is representative of serum samples from five mice.

SK-Mel-5 cells [2] = test: Electron microscopy of cultured melanoma cells; type: cell-based, human; conditions: 10 μM, 24 h
[3] = BMS-345541 levels in mouse serum and tumor tissues after oral dose; type: in vivo, mice
Method: as §1
Tumor tissue levels of drug were 3.2±0.97, 12.5±3.28 and 28.1±2.65 nmoles per gram tissue protein for the three treatment groups, respectively.

SK-Mel-5 cells [4] = test: Western blot / confocal analysis of apoptotic proteins in subcellular fractions; type: cell-based, human; conditions: 10 μM
Method: Subcellular mitochondria and cytoplasm were prepared and subjected to Western blot analysis for Bcl-2 and Bax. […] After exposure, mitochondria were isolated and incubated with 80 μM 3,3′dihexyloxacarbocyanine iodide (DiOC6) at 37° C. for 15 min. Δψm was determined by FACS analysis using 484/530 nm filters within 10 min while gating the forward and sideward scatters on intact mitochondria (FIG. 5C). […] Subcellular extracts were prepared and subjected to Western blot analysis for cytochrome-C and AIF. […] The supernatant was assessed for cytochrome-c release. 200 μM Ca^2+ was used as a positive control.
The cellular caspase-3 activity in samples was detected as described in Materials and Methods. […] Cells were fixed and stained with propidium iodide staining as described in FIG. 4H. The percentage of cell death was measured with flow cytometry. […] Cytosol was extracted and subjected to Western blot analysis for AIF, cytochrome-c (cyto-C) and actin. Actin was used as a loading control protein. […] Ref-1 was used as a nuclear marker protein. All data shown here were from three independent experiments. […] SK-Mel-5 cells were exposed to 10 μM BMS and/or pan-caspase inhibitor (Z-VAD-fmk, 50 μM).
Proteins from cell extracts were separated by 12% SDS-PAGE and electrophoretically transferred to nitrocellulose membranes. Nonspecific binding was blocked with 5% milk in TBST buffer (4 mM Tris base, 100 mM NaCl, pH 7.5, 0.05% Tween), incubated with the indicated primary antibodies with a dilution of 1:1000 at room temperature for 2 h or 4° C. for overnight and then with horseradish peroxidase-conjugated secondary antibody for 1 h. Blots were visualized by enhanced chemiluminescence assay.
The Mitochondria Isolation Kit (Pierce, Rockford, Ill.) was used for isolation of mitochondria from cultured melanoma cells according to the manufacture's instruction for the Reagent-based method. Briefly, cells (2×10^7) were collected, washed with PBS buffer and resuspended in 0.8 ml of Reagent A on ice for 2 min. 10 μl of Reagent B was added and samples were kept on ice, with vortexing very minute for 5 min. After addition of 0.8 ml of Reagent C, the mixture was centrifuged at 700×g for 10 min to remove the cell debris and nuclei. The supernatant was then centrifuged at 3,000×g for 15 min. The pellet (mitochondria) was washed with Reagent C. The purity of mitochondria was determined by Western blotting with β-actin, where β-actin negative preparation were fully to be pure. The supernatant (cytosolic fraction) was further cleared by centrifugation at 12,000×g for 15 min.
Cells were incubated with the anti-AIF polyclonal antibody for 2 h. Cells were washed twice and incubated with the secondary antibody conjugated with FITC for 1 h.

SK-Mel-5 cells [5] = test: TUNEL assay of cultured cells by flow cytometry; type: cell-based, human; conditions: 36 h
Method: FIGS. 4A-4H. […] Paraffin-embedded tumor tissues were subjected to H&E staining (FIGS. 4C & D) and DeadEnd Fluorometric TUNEL-assay for detection of apoptosis (FIGS. 4E & F). The TUNEL-positive cells are visualized in green fluorescence in a red (Propidium Iodide) background by fluorescence microscopy. […] After 36 h incubation, cells were collected and fixed with 1% formaldehyde and 70% ice-cold ethanol. The apoptotic cells were examined using TUNEL-assay and analyzed by flow cytometry through measuring fluorescein-12-dUTP at 520 nm. The apoptotic rate is indicated in each box. Data shown are represented one of three independent experiments. […] Cells were fixed and stained with Propidium iodide. Cell fluorescence was measured by flow cytometry and the data were analyzed using DNA content histogram deconvolution software (Multicycle from Phoenix Flow Systems). The percentage of apoptotic cells with fragmented DNA (PI intensity sub-G0/G1) is indicated at each time point. The experiments were repeated twice, in duplicates for each point (total n=4).
In melanoma, constitutive activation of NF-κB confers tumor survival capacity and escape from apoptosis (Richmond, 2002). […] Apoptotic cells were labeled using DeadEnd Fluorometric TUNEL reagent and analyzed by flow cytometry. […] Thirty-six hours after transfection, cells were collected, labeled with TUNEL reagent and analyzed by flow cytometry. […] Induction of DNA fragmentation, a hallmark of apoptosis, was evaluated by staining DNA with ethidium bromide followed by quantization by FACS analysis.

Hs 294T tumors = test: Melanoma tumor growth in nude mice; type: in vivo; conditions: 75 mg/kg orally once daily, 21 days, vs vehicle

Cc1ccc2nc(NCCN)c3ncc(C)n3c2c1.Cl [BMS-345541, 4(2′-aminoethyl)amino-1,8-dimethylimidazo(1,2-a)quinoxaline]
cell morphology (SK-Mel-5 cells [1]; 10 μM or 100 μM, 14 h (FIG. 1A)): appeared morphologically apoptotic | cell number after three days of culture (SK-Mel-5 cells [1]; Sk-Mel-5, 0.1 μM): 3.7 ± 0.55 10^5 | cell number after three days of culture (SK-Mel-5 cells [1]; Sk-Mel-5, 1.0 μM): 2.7 ± 0.31 10^5 | cell number after three days of culture (SK-Mel-5 cells [1]; Sk-Mel-5, 10 μM): 0.028 ± 0.02 10^5 | cell number after three days of culture (SK-Mel-5 cells [1]; Sk-Mel-5, 100 μM): 0 10^5 | IKK activity in SK-Mel-5 melanoma cells (IKK): reduced by BMS-345541 in a concentration-dependent fashion | morphology under electron microscopy (SK-Mel-5 cells [2]): typical feature of apoptosis | concentration in tumor tissues ([3]; 75 mg/kg oral, 1.5 h (FIG. 1E)): 19±2.5 nmoles/g tissue protein | concentration in tumor tissues ([3]; 75 mg/kg oral, 3 h (FIG. 1E)): 44±1.5 nmoles/g tissue protein | concentration in tumor tissues ([3]; 75 mg/kg oral, 5 h (FIG. 1E)): 30±1.0 nmoles/g tissue protein | concentration in tumor tissues ([3]; 75 mg/kg oral, 8 h (FIG. 1E)): 29±2.5 nmoles/g tissue protein | concentration in tumor tissues ([3]; 75 mg/kg oral, 24 h (FIG. 1E)): 11±0.83 nmoles/g tissue protein | tumor tissue level ([3]; 8 h after oral dose of 10 mg/kg): 3.2±0.97 nmoles per gram tissue protein | tumor tissue level ([3]; 8 h after oral dose of 25 mg/kg): 12.5±3.28 nmoles per gram tissue protein | tumor tissue level ([3]; 8 h after oral dose of 75 mg/kg (dose series)): 28.1±2.65 nmoles per gram tissue protein | concentration at 1.5 h ([3]; nude, mouse, serum, 75 mg/kg oral, 1.5 h (FIG. 1E)): 6.6 ± 0.31 µM | concentration at 3 h ([3]; nude, mouse, serum, 75 mg/kg oral, 3 h (FIG. 1E)): 18 ± 1.3 µM | concentration at 5 h ([3]; nude, mouse, serum, 75 mg/kg oral, 5 h (FIG. 1E)): 5.2 ± 0.19 µM | concentration at 8 h ([3]; nude, mouse, serum, 75 mg/kg oral, 8 h (FIG. 1E)): 4.1 ± 0.22 µM | concentration at 24 h ([3]; nude, mouse, serum, 75 mg/kg oral, 24 h (FIG. 1E)): 1.1 ± 0.065 µM | concentration at 8 h ([3]; nude, mouse, serum, 8 h after oral dose of 10 mg/kg): 0.9 ± 0.25 µM | concentration at 8 h ([3]; nude, mouse, serum, 8 h after oral dose of 25 mg/kg): 3.1 ± 1.1 µM | concentration at 8 h ([3]; nude, mouse, serum, 8 h after oral dose of 75 mg/kg (dose series)): 8.2 ± 1.1 µM | time of cytochrome-c release into cytosol (SK-Mel-5 cells [4]): 14 h | time of initiation of AIF release into cytosol (SK-Mel-5 cells [4]): 4 h | release of pro-apoptotic molecules from mitochondria (SK-Mel-5 cells [4]; 24 h, Western blot): mitochondrial cytochrome-c release into the cytoplasm and AIF nuclear translocation | increase in apoptotic cells vs vehicle (TUNEL) (SK-Mel-5 cells [5]; SK-Mel-5, 1.0 μM): 2 fold | increase in apoptotic cells vs vehicle (TUNEL) (SK-Mel-5 cells [5]; SK-Mel-5, 10 μM): 3.3 fold | increase in apoptotic cells vs vehicle (TUNEL) (SK-Mel-5 cells [5]; SK-Mel-5, 100 μM): 4 fold | inhibition of tumor growth (Hs 294T tumors): 67±3.4%
